Test results as given in patent US20060069132A1, “Azolecarboxamide herbicides” (priority 2004, published 2006).

Key:
lambsquarters = test: Test B pre-/postemergence herbicide test; format: in vivo, Chenopodium album; conditions: for Lambsquarters plant response rating: postemergence; for Lambsquarters plant response rating (0 to 100 scale): 0 = no effect, 100 = complete control
Method in brief: (§1)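 Visual rating, 0 (no effect) to 100 (complete control), versus untreated controls after 13–15 d in greenhouse. Pre- and postemergence applications (postemergence plants 2–18 cm, 1–4 leaves); flooded paddy arm at 2-leaf stage. Compounds in non-phytotoxic solvent plus surfactant.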

wheat = test: Test B postemergence herbicide test; format: in vivo, Triticum aestivum; design: key to Wheat plant response rating: 0 = no effect, 100 = complete control; conditions: for Wheat plant response rating: postemergence
Method in brief: (§2)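 Greenhouse test; postemergence application to plants at 1–4 leaves (2–18 cm); paddy species at 2 leaves; evaluated visually vs controls at 13–15 days; scale 0–100 (100 = complete control).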

giant foxtail = test: Test B pre-/postemergence herbicide test; format: in vivo, Setaria faberi
Method in brief: as §1

pigweed = test: Test B pre-/postemergence herbicide test; format: in vivo, Amaranthus retroflexus; conditions: for Pigweed plant response rating: postemergence; for Pigweed plant response rating (0 to 100 scale): 0 = no effect, 100 = complete control
Method in brief: as §1

velvetleaf = test: Test B pre-/postemergence herbicide test; format: in vivo, Abutilon theophrasti; conditions: for Velvetleaf plant response rating: postemergence
Method in brief: as §1

large crabgrass = test: Test B pre-/postemergence herbicide test; format: in vivo, Digitaria sanguinalis
Method in brief: as §1

blackgrass = test: Test B postemergence herbicide test; format: in vivo, Alopecurus myosuroides; conditions: scale 0 (no effect) to 100 (complete control); for Blackgrass plant response rating: postemergence, visual rating
Method in brief: (§3)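 Read-out: visual comparison with controls, scored 0 to 100, where 100 means complete control and 0 no effect. Formulated chemicals were applied postemergence to plants 2–18 cm tall (1- to 4-leaf), or to flooded-paddy plants at the 2-leaf stage, then held 13 to 15 days under glass.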

cocklebur = test: Test B pre-/postemergence herbicide test; format: in vivo, Xanthium strumarium
Method in brief: (§4)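 Pre: seeds sown, then sprayed. Post: 1–4-leaf plants (2–18 cm) sprayed at the same time. Paddy: flooded, treated at 2-leaf stage. Formulation: non-phytotoxic solvent with surfactant. Greenhouse 13–15 days; visual 0–100 score relative to controls.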

Surinam grass = test: Test B pre-/postemergence herbicide test; format: in vivo, Urochloa decumbens; conditions: for Surinam Grass plant response rating: postemergence
Method in brief: as §1

[1] = test system: small flower umbrella sedge; test: Test B flooded paddy test; format: in vivo, Cyperus difformis; conditions: 1000 g ai/ha, scale 0 to 100 (0 no effect, 100 complete control)
Method in brief: as §3

barnyardgrass = test: Test B pre-/postemergence herbicide test; format: in vivo, Echinochloa crus-galli
Method in brief: as §4

ducksalad = test: Test B flooded paddy test; format: in vivo, Heteranthera limosa; conditions: 1000 g ai/ha, scale 0 to 100 (0 no effect, 100 complete control)
Method in brief: as §3

corn = test: Test B pre-/postemergence herbicide test; format: in vivo, Zea mays
Method in brief: as §1

rice = test: Test B flooded paddy test; format: in vivo, Oryza sativa; conditions: 1000 g ai/ha, scale 0 to 100 (0 no effect, 100 complete control)
Method in brief: as §3

wild oat = test: Test B postemergence herbicide test; format: in vivo, Avena fatua; conditions: for Oat, Wild plant response rating: postemergence
Method in brief: as §2

[2] = Postemergence, 500 g ai/ha, visual rating after 13 to 15 days, scale 0 (no effect) to 100 (complete control)
[3] = 125 g ai/ha, visual rating, scale 0 (no effect) to 100 (complete control)
[4] = preemergence, 125 g ai/ha, 0 to 100 scale, 0 is no effect, 100 is complete control
[5] = Preemergence, 500 g ai/ha, scale 0 to 100
[6] = postemergence, 125 g ai/ha, visual rating, scale 0 (no effect) to 100 (complete control)
[7] = 500 g ai/ha, visual rating 0-100, 0 no effect, 100 complete control, preemergence
[8] = 500 g ai/ha, visual rating, scale 0 (no effect) to 100 (complete control)
[9] = 125 g ai/ha, 0 = no effect, 100 = complete control, preemergence
[10] = postemergence, 500 g ai/ha, visual rating, scale 0 (no effect) to 100 (complete control)
[11] = 500 g ai/ha, scale 0 to 100, 0 is no effect, 100 is complete control
[12] = 500 g ai/ha, visual rating, 0 = no effect, 100 = complete control, preemergence
[13] = postemergence, 500 g ai/ha, scale 0 to 100, 0 is no effect, 100 is complete control

Compound: CCn1nc(C(C)(C)C)cc1C(=O)Nc1ccc(F)c(C(=O)NCCF)c1 [Compound 60]
- Plant response rating, Lambsquarters (lambsquarters; [2]): 90
- Lambsquarters plant response rating (lambsquarters; [3]): 80
- Plant response rating, Lambsquarters (lambsquarters; [4]): 90
- Plant response rating, Wheat (wheat; [2]): 0
- Wheat plant response rating (wheat; [3]): 0
- Plant response rating, Foxtail, Giant (giant foxtail; [2]): 20
- Foxtail, Giant plant response rating (giant foxtail; [5]): 100
- Foxtail, Giant plant response rating (giant foxtail; [6]): 10
- Plant response rating, Foxtail, Giant (giant foxtail; [4]): 40
- Plant response rating, Pigweed (pigweed; [2]): 70
- Pigweed plant response rating (pigweed; [3]): 70
- Plant response rating, Pigweed (pigweed; [4]): 90
- Plant response rating, Velvetleaf (velvetleaf; [2]): 60
- Velvetleaf plant response rating (velvetleaf; [3]): 20
- Plant response rating, Velvetleaf (velvetleaf; [4]): 10
- Plant response rating, Crabgrass, Large (large crabgrass; [2]): 20
- Crabgrass, Large plant response rating (large crabgrass; [5]): 100
- Crabgrass, Large plant response rating (large crabgrass; [6]): 10
- Plant response rating, Crabgrass, Large (large crabgrass; [4]): 90
- Plant response rating, Blackgrass (blackgrass; Postemergence, 500 g ai/ha, visual rating after 13 to 15 days): 0
- Blackgrass plant response rating (blackgrass; 125 g ai/ha): 0
- Plant response rating, Cocklebur (cocklebur; [2]): 70
- Cocklebur plant response rating (cocklebur; [5]): 0
- Cocklebur plant response rating (cocklebur; [6]): 40
- Plant response rating, Cocklebur (cocklebur; [4]): 0
- Plant response rating, Surinam Grass (Surinam grass; [2]): 20
- Surinam Grass plant response rating (Surinam grass; [3]): 10
- Plant response rating, Surinam Grass (Surinam grass; [4]): 10
- Sedge, Umbrella plant response rating ([1]; visual rating, 13 to 15 days): 60
- Plant response rating, Barnyardgrass (barnyardgrass; [2]): 10
- Barnyardgrass plant response rating (barnyardgrass; [5]): 100
- Barnyardgrass plant response rating (barnyardgrass; [6]): 10
- Plant response rating, Barnyardgrass (barnyardgrass; [4]): 50
- Ducksalad plant response rating (ducksalad; visual rating, 13 to 15 days): 70
- Plant response rating, Corn (corn; [2]): 20
- Corn plant response rating (corn; [5]): 0
- Corn plant response rating (corn; [6]): 10
- Plant response rating, Corn (corn; [4]): 0
- Rice plant response rating (rice; visual rating, 13 to 15 days): 50
- Plant response rating, Oat, Wild (wild oat; [2]): 20
- Oat, Wild plant response rating (wild oat; [3]): 20

Compound: C=CCNC(=O)c1cccc(NC(=O)c2sc(C(C)(C)C)nc2C)c1 [Compound 202]
- Lambsquarters plant response rating (0 to 100 scale) (lambsquarters; 125 g ai/ha, preemergence): 30
- Plant response rating, Lambsquarters (lambsquarters; [7]): 100
- Lambsquarters plant response rating (lambsquarters; [3]): 50
- Lambsquarters plant response rating (lambsquarters; [8]): 50
- Wheat plant response rating (wheat; [3]): 0
- Wheat plant response rating (wheat; [8]): 0
- Foxtail, Giant plant response rating (0 to 100 scale) (giant foxtail; [9]): 10
- Plant response rating, Foxtail, Giant (giant foxtail; [7]): 90
- Foxtail, Giant plant response rating (giant foxtail; [6]): 10
- Foxtail, Giant plant response rating (giant foxtail; [10]): 10
- Pigweed plant response rating (0 to 100 scale) (pigweed; 125 g ai/ha, preemergence): 10
- Plant response rating, Pigweed (pigweed; [7]): 90
- Pigweed plant response rating (pigweed; [3]): 30
- Pigweed plant response rating (pigweed; [8]): 40
- Velvetleaf plant response rating (0 to 100 scale) (velvetleaf; [9]): 10
- Plant response rating, Velvetleaf (velvetleaf; [7]): 20
- Velvetleaf plant response rating (velvetleaf; [3]): 10
- Velvetleaf plant response rating (velvetleaf; [8]): 30
- Crabgrass, Large plant response rating (0 to 100 scale) (large crabgrass; [9]): 60
- Plant response rating, Crabgrass, Large (large crabgrass; [7]): 100
- Crabgrass, Large plant response rating (large crabgrass; [6]): 0
- Crabgrass, Large plant response rating (large crabgrass; [10]): 10
- Blackgrass plant response rating (blackgrass; 125 g ai/ha): 0
- Blackgrass plant response rating (blackgrass; 500 g ai/ha): 0
- Cocklebur plant response rating (0 to 100 scale) (cocklebur; [9]): 0
- Plant response rating, Cocklebur (cocklebur; [7]): 10
- Cocklebur plant response rating (cocklebur; [6]): 30
- Cocklebur plant response rating (cocklebur; [10]): 40
- Surinam Grass plant response rating (0 to 100 scale) (Surinam grass; [9]): 0
- Plant response rating, Surinam Grass (Surinam grass; [7]): 60
- Surinam Grass plant response rating (Surinam grass; [3]): 10
- Surinam Grass plant response rating (Surinam grass; [8]): 10
- Sedge, Umbrella plant response rating ([1]; visual rating, 13 to 15 days): 50
- Barnyardgrass plant response rating (0 to 100 scale) (barnyardgrass; [9]): 20
- Plant response rating, Barnyardgrass (barnyardgrass; [7]): 90
- Barnyardgrass plant response rating (barnyardgrass; [6]): 0
- Barnyardgrass plant response rating (barnyardgrass; [10]): 0
- Ducksalad plant response rating (ducksalad; visual rating, 13 to 15 days): 60
- Corn plant response rating (0 to 100 scale) (corn; [9]): 0
- Plant response rating, Corn (corn; [7]): 20
- Corn plant response rating (corn; [6]): 10
- Corn plant response rating (corn; [10]): 10
- Rice plant response rating (rice; visual rating, 13 to 15 days): 30
- Oat, Wild plant response rating (wild oat; [3]): 10
- Oat, Wild plant response rating (wild oat; [8]): 10

Compound: CCn1nc(C(C)(C)C)cc1C(=O)Nc1cc(C(=O)OC(C)C)c(F)cc1F [Compound 248]
- Lambsquarters plant response rating (0 to 100 scale) (lambsquarters; 125 g ai/ha, preemergence): 0
- Lambsquarters plant response rating (lambsquarters; [3]): 60
- Lambsquarters plant response rating (lambsquarters; [11]): 70
- Wheat plant response rating (wheat; [3]): 30
- Wheat plant response rating (wheat; [11]): 40
- Foxtail, Giant plant response rating (0 to 100 scale) (giant foxtail; [9]): 20
- Plant response rating, Foxtail, Giant (giant foxtail; [12]): 60
- Foxtail, Giant plant response rating (giant foxtail; [6]): 20
- Foxtail, Giant plant response rating (giant foxtail; [13]): 30
- Pigweed plant response rating (0 to 100 scale) (pigweed; 125 g ai/ha, preemergence): 0
- Pigweed plant response rating (pigweed; [3]): 60
- Pigweed plant response rating (pigweed; [11]): 80
- Velvetleaf plant response rating (0 to 100 scale) (velvetleaf; [9]): 0
- Plant response rating, Velvetleaf (velvetleaf; [12]): 20
- Velvetleaf plant response rating (velvetleaf; [3]): 20
- Velvetleaf plant response rating (velvetleaf; [11]): 30
- Crabgrass, Large plant response rating (0 to 100 scale) (large crabgrass; [9]): 20
- Plant response rating, Crabgrass, Large (large crabgrass; [12]): 40
- Crabgrass, Large plant response rating (large crabgrass; [6]): 10
- Crabgrass, Large plant response rating (large crabgrass; [13]): 20
- Blackgrass plant response rating (blackgrass; 125 g ai/ha): 20
- Blackgrass plant response rating (blackgrass; 500 g ai/ha): 30
- Cocklebur plant response rating (0 to 100 scale) (cocklebur; [9]): 0
- Plant response rating, Cocklebur (cocklebur; [12]): 0
- Cocklebur plant response rating (cocklebur; [6]): 30
- Cocklebur plant response rating (cocklebur; [10]): 50
- Surinam Grass plant response rating (0 to 100 scale) (Surinam grass; [9]): 20
- Plant response rating, Surinam Grass (Surinam grass; [12]): 60
- Surinam Grass plant response rating (Surinam grass; [3]): 10
- Surinam Grass plant response rating (Surinam grass; [11]): 20
- Sedge, Umbrella plant response rating [1]: 50
- Barnyardgrass plant response rating (0 to 100 scale) (barnyardgrass; [9]): 0
- Plant response rating, Barnyardgrass (barnyardgrass; [12]): 20
- Barnyardgrass plant response rating (barnyardgrass; [6]): 10
- Barnyardgrass plant response rating (barnyardgrass; [10]): 40
- Ducksalad plant response rating (ducksalad): 30
- Corn plant response rating (0 to 100 scale) (corn; [9]): 0
- Plant response rating, Corn (corn; [12]): 0
- Corn plant response rating (corn; [6]): 20
- Corn plant response rating (corn; [13]): 30
- Rice plant response rating (rice): 50
- Oat, Wild plant response rating (wild oat; [3]): 30
- Oat, Wild plant response rating (wild oat; [11]): 60
